In patent publication US5502053A, “HIV protease inhibitor compounds” (Merck & Co., Inc., priority 1994, dated 1996):

Target: T1, HIV protease (Human immunodeficiency virus type 1 group M subtype B, UniProt P03366)
T1 construct: made in house; host or cells: Escherichia coli
Assay: Assay for Inhibition of Microbial Expressed Vital Protease (protease expressed in Eschericia coli, peptide substrate, HPLC of products)
Format: biochemical
Settings: peptide substrate Val-Ser-Gln-Asn-(betanapthyl)Ala-Pro-Ile-Val 0.5 mg/mL; 50 mM Na acetate, pH 5.5, 30° C., 1 hour; 15 ul of 0.33 nM protease
Method: Assay for Inhibition of Microbial Expressed Vital Protease
Inhibition studies of the reaction of the protease expressed in Eschericia coli with a peptide substrate Val-Ser-Gln-Asn-(betanapthyl)Ala-Pro-Ile-Val, 0.5 mg/mL at the time the reaction is initiated! were in 50 mM Na acetate, p H 5.5, at 30° C. for 1 hour. Various concentrations of inhibitor in 1.0 ul DMSO were added to 25 ul of the peptide solution in water. The reaction is initiated by the addition of 15 ul of 0.33 nM protease (0.11 ng) in a solution of 0.133M Na acetate pH 5.5 and 0.1% bovine serum albumin. The reaction was quenched with 160 ul of 5% phosphoric acid. Products of the reaction were separated by HPLC (VYDAC wide pore 5 cm C-18 reverse phase, acetonitrile gradient, 0.1% phosphoric acid). The extent of inhibition of the reaction was determined from the peak heights of the products.

SMILES | IC50 [nM]
CCCCC(=O)C[C@@H](CC1CCCCC1)[C@@H](O)C[C@@H](Cc1ccccc1)C(=O)N[C@H]1c2ccccc2C[C@H]1O [Compound A, N-(2(R)-hydroxy-1(S)-indanyl)-5(R)-cyclohexylmethyl-4(S)-hydroxy-7-oxo-2(R) -phenylmethyl undecaneamide] | 11.5 to 58
CC(C)(C)CC(=O)C[C@@H](CC1CCCCC1)[C@@H](O)C[C@@H](Cc1ccccc1)C(=O)N[C@H]1c2ccccc2C[C@H]1O [Compound B, N-(2(R)-hydroxy-1(S)-indanyl)-5(R)-cyclohexylmethyl-9,9-dimethyl-4(S)-hydroxy-7-oxo-2(R)-phenylmethyl decaneamide] | 11.5 to 58
